Assay results reported in ChEMBL document CHEMBL2069259, “Preclinical strategy to reduce clinical hepatotoxicity using in vitro bioactivation data for >200 compounds” (Chem Res Toxicol, 2012).
Starred links: 1 amine or outer side, 2 acyl side, 3 side chain; linkers in the order of their positions; H or OH if unused. Positions of bridges follow the written chain, without caps; N, C: chain ends. Non-standard residues stand in square brackets, D forms with d. Residues, ends and D or L forms follow the SMILES beside them. Chains are numbered I, II in the order given. Actinocin(9to1) = Cc1c2oc3c(C)ccc(C(=O)[*:1])c3nc-2c(C(=O)[*:2])c(N)c1=O; NMeV = CN[C@H](C(=O)O)C(C)C; Sar = CNCC(=O)O

Legend:
[1] = tested on: Liver microsomes; assay: Metabolic stability in human liver microsomes assessed as low signal/noise ratio (S/N of 1 to 10) by measuring GSH adduct formation at 100 uM after 90 mins by HPLC-MS analysis; type: ADME, Microsome; settings: 1.5 h
[2] = target: T1, CYP1A2 (Homo sapiens, UniProt P05177); assay: Inhibition of human CYP1A2 assessed as ratio of IC50 in absence of NADPH to IC50 for presence of NADPH using ethoxyresorufin as substrate after 30 mins
T1 sequence (P05177 whole entry): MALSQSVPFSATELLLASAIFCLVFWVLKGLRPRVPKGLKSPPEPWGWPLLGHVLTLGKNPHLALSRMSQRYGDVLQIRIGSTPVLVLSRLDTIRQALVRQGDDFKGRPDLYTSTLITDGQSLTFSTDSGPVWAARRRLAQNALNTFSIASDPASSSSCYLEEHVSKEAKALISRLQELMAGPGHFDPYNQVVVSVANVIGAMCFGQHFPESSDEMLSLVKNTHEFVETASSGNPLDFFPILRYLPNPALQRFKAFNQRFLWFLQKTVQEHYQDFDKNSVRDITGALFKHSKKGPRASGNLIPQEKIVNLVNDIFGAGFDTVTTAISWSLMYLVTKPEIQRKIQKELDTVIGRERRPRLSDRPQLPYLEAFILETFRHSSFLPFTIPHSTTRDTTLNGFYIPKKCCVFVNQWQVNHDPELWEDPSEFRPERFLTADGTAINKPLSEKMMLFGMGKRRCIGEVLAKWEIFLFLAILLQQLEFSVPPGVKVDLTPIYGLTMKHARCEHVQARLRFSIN

[3] = target: CYP2D6 (Homo sapiens, UniProt P10635); assay: Inhibition of human CYP2D6 assessed as ratio of IC50 in absence of NADPH to IC50 for presence of NADPH using 4-methylaminoethyl-7-methoxycoumarin as substrate after 30 mins
[4] = tested on: Liver microsomes; assay: Metabolic stability in human liver microsomes assessed as high signal/noise ratio (S/N of >100) by measuring GSH adduct formation at 100 uM after 90 mins by HPLC-MS analysis; settings: 1.5 h
[5] = tested on: Liver microsomes; assay: Metabolic stability in human liver microsomes assessed as GSH adduct formation at 100 uM after 90 mins by HPLC-MS analysis; settings: 1.5 h
[6] = target: T2, CYP3A4 (Homo sapiens, UniProt P08684); assay: Inhibition of human CYP3A4 assessed as ratio of IC50 in absence of NADPH to IC50 for presence of NADPH using diethoxyfluorescein as substrate after 30 mins
[7] = target: T2, CYP3A4; assay: Inhibition of human CYP3A4 assessed as ratio of IC50 in absence of NADPH to IC50 for presence of NADPH using 7-benzyloxyquinoline as substrate after 30 mins
[8] = target: CYP2C9 (Homo sapiens, UniProt P11712); assay: Inhibition of human CYP2C9 assessed as ratio of IC50 in absence of NADPH to IC50 for presence of NADPH using 7-methoxy-4-trifluoromethylcoumarin-3-acetic acid as substrate after 30 mins
[9] = target: CYP2C19 (Homo sapiens, UniProt P33261); assay: Inhibition of human CYP2C19 assessed as ratio of IC50 in absence of NADPH to IC50 for presence of NADPH using 3-butyryl-7-methoxycoumarin as substrate after 30 mins
[10] = tested on: Liver microsomes; settings: human, 1.5 h, 100 µM
[11] = probe 4-methylaminoethyl-7-methoxycoumarin
[12] = probe 3-butyryl-7-methoxycoumarin

Sequence of CYP2C19 (P33261 whole entry): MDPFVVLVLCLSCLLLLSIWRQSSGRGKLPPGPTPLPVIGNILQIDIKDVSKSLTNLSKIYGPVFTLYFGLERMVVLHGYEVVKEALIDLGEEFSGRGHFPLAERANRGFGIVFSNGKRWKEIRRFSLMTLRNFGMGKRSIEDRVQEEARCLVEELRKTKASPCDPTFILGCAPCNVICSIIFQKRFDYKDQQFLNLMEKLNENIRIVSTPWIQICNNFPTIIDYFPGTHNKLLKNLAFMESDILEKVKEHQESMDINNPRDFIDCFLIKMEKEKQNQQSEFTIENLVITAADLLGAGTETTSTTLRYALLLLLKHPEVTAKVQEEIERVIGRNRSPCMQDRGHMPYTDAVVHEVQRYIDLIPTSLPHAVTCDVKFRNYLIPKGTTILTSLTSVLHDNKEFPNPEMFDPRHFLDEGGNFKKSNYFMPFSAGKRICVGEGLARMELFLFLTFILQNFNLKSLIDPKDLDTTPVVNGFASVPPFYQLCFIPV
Sequence of CYP2C9 (P11712 whole entry): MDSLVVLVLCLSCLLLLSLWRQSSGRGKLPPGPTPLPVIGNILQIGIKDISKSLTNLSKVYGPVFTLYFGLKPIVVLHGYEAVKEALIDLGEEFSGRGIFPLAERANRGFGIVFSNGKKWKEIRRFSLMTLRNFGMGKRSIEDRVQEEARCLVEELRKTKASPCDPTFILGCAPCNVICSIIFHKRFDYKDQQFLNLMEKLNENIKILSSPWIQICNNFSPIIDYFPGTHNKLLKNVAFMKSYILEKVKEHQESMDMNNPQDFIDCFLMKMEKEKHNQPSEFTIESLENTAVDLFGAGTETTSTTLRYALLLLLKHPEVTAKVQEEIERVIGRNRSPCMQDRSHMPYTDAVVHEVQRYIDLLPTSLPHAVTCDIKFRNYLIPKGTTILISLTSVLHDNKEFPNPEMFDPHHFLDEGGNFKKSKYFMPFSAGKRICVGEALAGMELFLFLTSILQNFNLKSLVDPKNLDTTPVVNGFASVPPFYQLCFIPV
Sequence of CYP2D6 (P10635 whole entry): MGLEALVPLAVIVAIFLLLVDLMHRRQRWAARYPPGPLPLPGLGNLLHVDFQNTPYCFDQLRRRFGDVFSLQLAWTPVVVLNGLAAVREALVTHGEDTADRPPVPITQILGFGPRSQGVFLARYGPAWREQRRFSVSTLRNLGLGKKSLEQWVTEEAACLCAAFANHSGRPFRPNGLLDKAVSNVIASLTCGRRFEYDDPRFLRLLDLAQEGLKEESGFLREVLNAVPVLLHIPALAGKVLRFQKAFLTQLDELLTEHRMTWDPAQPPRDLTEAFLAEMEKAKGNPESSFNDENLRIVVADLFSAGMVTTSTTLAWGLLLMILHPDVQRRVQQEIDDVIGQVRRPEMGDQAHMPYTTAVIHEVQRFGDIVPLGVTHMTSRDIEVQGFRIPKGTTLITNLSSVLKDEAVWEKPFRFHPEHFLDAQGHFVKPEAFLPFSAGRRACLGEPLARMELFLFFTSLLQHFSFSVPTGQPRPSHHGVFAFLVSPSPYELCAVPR
T2 sequence (P08684 whole entry): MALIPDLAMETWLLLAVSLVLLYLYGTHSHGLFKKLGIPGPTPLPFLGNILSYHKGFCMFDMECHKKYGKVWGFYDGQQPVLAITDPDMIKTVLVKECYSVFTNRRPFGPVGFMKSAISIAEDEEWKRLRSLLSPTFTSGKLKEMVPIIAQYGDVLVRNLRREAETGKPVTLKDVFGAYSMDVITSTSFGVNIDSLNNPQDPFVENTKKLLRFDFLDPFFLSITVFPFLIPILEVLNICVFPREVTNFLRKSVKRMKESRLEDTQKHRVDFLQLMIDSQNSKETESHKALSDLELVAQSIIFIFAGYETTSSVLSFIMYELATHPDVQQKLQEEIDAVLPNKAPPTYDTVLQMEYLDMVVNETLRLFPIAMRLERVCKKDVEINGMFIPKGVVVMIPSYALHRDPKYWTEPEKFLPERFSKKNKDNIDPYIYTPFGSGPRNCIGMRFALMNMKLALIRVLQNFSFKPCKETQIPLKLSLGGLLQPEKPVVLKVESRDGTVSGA

CN1C(C(=O)Nc2ccccn2)=C(O)c2ccccc2S1(=O)=O [PIROXICAM]
Stability [1]: Unstable

COCCCC/C(=N\OCCN)c1ccc(C(F)(F)F)cc1 [FLUVOXAMINE]
IC50 shift at 0.5 h ([2]; probe ethoxyresorufin): < 2
IC50 shift at 0.5 h [3, 11]: 2
Stability [4]: Unstable

CC1(C)[C@@H](O)CC[C@]2(C)[C@H]3C(=O)C=C4[C@@H]5C[C@@](C)(C(=O)O)CC[C@]5(C)CC[C@@]4(C)[C@]3(C)CC[C@@H]12 [ENOXOLONE]
IC50 shift at 0.5 h ([2]; probe ethoxyresorufin): 2
Stability [5]: Stable

CC(c1cc2ccccc2s1)N(O)C(N)=O (stereo not given) [ZILEUTON]
IC50 shift at 0.5 h ([2]; probe ethoxyresorufin): > 5
Stability [5]: Stable

Nc1ccc(S(=O)(=O)c2ccc(N)cc2)cc1 [DAPSONE]
Stability [1]: Unstable

CCCc1cc(=O)[nH]c(=S)[nH]1 [PROPYLTHIOURACIL]
IC50 shift at 0.5 h [6]: > 5
IC50 shift at 0.5 h [7]: > 5
Stability [4]: Unstable

COc1cc2c(c(OC)c1OC)-c1ccc(OC)c(=O)cc1[C@@H](NC(C)=O)CC2 [COLCHICINE]
Stability [1]: Unstable

O=C(O)COc1ccc(C(=O)c2cccs2)c(Cl)c1Cl
IC50 shift at 0.5 h [8]: 2
IC50 shift at 0.5 h [9]: < 2
Stability [5]: Stable

CCOC(=O)n1ccn(C)c1=S [CARBIMAZOLE]
IC50 shift at 0.5 h [3]: > 5
IC50 shift at 0.5 h [6]: > 5
IC50 shift at 0.5 h [7]: > 5
Stability [4]: Unstable

Cc1cc(C(C)(C)C)c(O)c(C(C)(C)C)c1 [BUTYLATED HYDROXYTOLUENE]
Stability [1]: Unstable

COc1ccc(CN(CCN(C)C)c2ccccn2)cc1 [PYRILAMINE]
IC50 shift at 0.5 h [3, 11]: 2
Stability [10]: Unstable

CCN(CC)CCNc1ccc(CO)c2sc3ccccc3c(=O)c12 [HYCANTHONE]
IC50 shift at 0.5 h [2]: > 5
IC50 shift at 0.5 h [6]: 2
Stability [4]: Unstable

CC(C)C(=O)Nc1ccc([N+](=O)[O-])c(C(F)(F)F)c1 [FLUTAMIDE]
IC50 shift at 0.5 h [2]: < 2
IC50 shift at 0.5 h [3]: < 2
IC50 shift at 0.5 h [6]: < 2
Stability [10]: Unstable

Clc1ccccc1C(c1ccccc1)(c1ccccc1)n1ccnc1 [CLOTRIMAZOLE]
IC50 shift at 0.5 h [2]: 2
IC50 shift at 0.5 h [3]: < 2
Stability [5]: Stable

CC1=C(/C=C/C(C)=C/C=C/C(C)=C/C(=O)O)C(C)(C)CCC1 [TRETINOIN]
IC50 shift at 0.5 h ([2]; probe ethoxyresorufin): < 2
IC50 shift at 0.5 h [9, 12]: 2
IC50 shift at 0.5 h [3, 11]: 2
IC50 shift at 0.5 h ([6]; probe diethoxyfluorescein): 2
IC50 shift at 0.5 h ([7]; probe 7-benzyloxyquinoline): > 5
Stability [5]: Stable

C[C@H]1[C@H](c2ccccc2)OCCN1C [PHENDIMETRAZINE]
Stability [1]: Unstable

C1CCC(C(CC2CCCCN2)C2CCCCC2)CC1 (stereo not given) [PERHEXILINE]
IC50 shift at 0.5 h [8]: < 2

Cc1cccc(CN2CCN(C(c3ccccc3)c3ccc(Cl)cc3)CC2)c1 (stereo not given) [MECLIZINE]
IC50 shift at 0.5 h [9, 12]: > 5
IC50 shift at 0.5 h ([6]; probe diethoxyfluorescein): 2
IC50 shift at 0.5 h ([7]; probe 7-benzyloxyquinoline): > 5
Stability [5]: Stable

CC(C)OC(=O)C(C)(C)Oc1ccc(C(=O)c2ccc(Cl)cc2)cc1 [FENOFIBRATE]
IC50 shift at 0.5 h [2]: > 5
IC50 shift at 0.5 h [9]: < 2
IC50 shift at 0.5 h [3]: 2
IC50 shift at 0.5 h [6]: < 2
Stability [5]: Stable

C[C@](N)(Cc1ccc(O)c(O)c1)C(=O)O [METHYLDOPA]
Stability [1]: Unstable

Nc1c2c(nc3ccccc13)CCCC2 [TACRINE]
IC50 shift at 0.5 h [8]: 2
IC50 shift at 0.5 h [9]: < 2
Stability [5]: Stable

CN1CCN(CCCN2c3ccccc3Sc3ccc(Cl)cc32)CC1 [PROCHLORPERAZINE]
Stability [1]: Unstable

NNC(=O)c1ccncc1 [ISONIAZID]
IC50 shift at 0.5 h [9]: > 5
IC50 shift at 0.5 h [3]: > 5
IC50 shift at 0.5 h [6]: > 5
IC50 shift at 0.5 h [7]: > 5
Stability [5]: Stable

CN1CCC[C@@H]1CCO[C@](C)(c1ccccc1)c1ccc(Cl)cc1 [CLEMASTINE]
IC50 shift at 0.5 h [9]: < 2
IC50 shift at 0.5 h [6]: 2
IC50 shift at 0.5 h [7]: > 5
Stability [5]: Stable

O=C1CCc2cc(OCCCCc3nnnn3C3CCCCC3)ccc2N1 [CILOSTAZOL]
IC50 shift at 0.5 h [6]: 2
IC50 shift at 0.5 h [7]: 2
Stability [5]: Stable

Oc1ccc2c(c1)[C@@]13CCCC[C@@]1(O)[C@@H](C2)N(CC1CCC1)CC3 [BUTORPHANOL]
IC50 shift at 0.5 h [3, 11]: < 2
Stability [5]: Stable

O=C(OCC(O)CO)c1ccccc1Nc1ccnc2cc(Cl)ccc12 (stereo not given) [GLAFENINE]
Stability [1]: Unstable

Oc1ccc2c3c1O[C@H]1[C@@H](O)CC[C@@]4(O)[C@@H](C2)N(CC2CCC2)CC[C@]314 [NALBUPHINE]
IC50 shift at 0.5 h [8]: 2
Stability [5]: Stable

C[C@]12C=CC(=O)C=C1CC[C@@H]1[C@@H]2C(=O)C[C@@]2(C)[C@H]1CC[C@]2(O)C(=O)CO [PREDNISONE]
Stability [1]: Unstable

C[N+]1(C)[C@@H]2CC[C@H]1C[C@@H](OC(=O)C(O)c1ccccc1)C2 (stereo not given in full) [HOMATROPINE METHYLBROMIDE]
IC50 shift at 0.5 h [3, 11]: < 2

N[C@@H](Cc1cc(I)c(Oc2ccc(O)c(I)c2)c(I)c1)C(=O)O [LIOTHYRONINE]
Stability [1]: Unstable

CC/C(=C(/CC)c1ccc(O)cc1)c1ccc(O)cc1 [DIETHYLSTILBESTROL]
IC50 shift at 0.5 h [2]: 2
Stability [4]: Unstable

C#C[C@]1(O)CC[C@H]2[C@@H]3CCc4cc(O)ccc4[C@H]3CC[C@@]21C [ETHINYL ESTRADIOL]
IC50 shift at 0.5 h ([6]; probe diethoxyfluorescein): 2
IC50 shift at 0.5 h ([7]; probe 7-benzyloxyquinoline): 2
Stability [4]: Unstable

CC(=O)N1CCN(c2ccc(OCC3COC(Cn4ccnc4)(c4ccc(Cl)cc4Cl)O3)cc2)CC1 (stereo not given) [KETOCONAZOLE]
Stability [1]: Unstable

Nc1ccc(S(=O)(=O)Nc2ccnn2-c2ccccc2)cc1 [SULFAPHENAZOLE]
Stability [1]: Unstable

CS(=O)(=O)Nc1ccc([N+](=O)[O-])cc1Oc1ccccc1 [NIMESULIDE]
IC50 shift at 0.5 h [6]: 2
IC50 shift at 0.5 h [7]: < 2
Stability [1]: Unstable

COc1cccc2c1C(=O)c1c(O)c3c(c(O)c1C2=O)C[C@@](O)(C(=O)CO)C[C@@H]3O[C@H]1C[C@H](N)[C@H](O)[C@H](C)O1 [DOXORUBICIN]
IC50 shift at 0.5 h [6]: 2
IC50 shift at 0.5 h [7]: > 5
Stability [10]: Unstable

Cc1c2oc3c(C)ccc(C(=O)N[C@@H]4C(=O)N[C@H](C(C)C)C(=O)N5CCC[C@H]5C(=O)N(C)CC(=O)N(C)[C@@H](C(C)C)C(=O)O[C@@H]4C)c3nc-2c(C(=O)N[C@@H]2C(=O)N[C@H](C(C)C)C(=O)N3CCC[C@H]3C(=O)N(C)CC(=O)N(C)[C@@H](C(C)C)C(=O)O[C@@H]2C)c(N)c1=O [DACTINOMYCIN] (I: T[dV]P[Sar][NMeV] / II: T[dV]P[Sar][NMeV]; ester I:1-I:C, II:1-II:C; linker I:N-II:N via Actinocin(9to1))
IC50 shift at 0.5 h ([8]; probe 7-methoxy-4-trifluoromethylcoumarin-3-acetic acid): 2
IC50 shift at 0.5 h [9, 12]: < 2
IC50 shift at 0.5 h ([7]; probe 7-benzyloxyquinoline): 2
Stability [5]: Stable

C#C[C@]1(O)CC[C@H]2[C@@H]3CCc4cc(OC)ccc4[C@H]3CC[C@@]21C [MESTRANOL]
IC50 shift at 0.5 h ([6]; probe diethoxyfluorescein): > 5
IC50 shift at 0.5 h ([7]; probe 7-benzyloxyquinoline): > 5
Stability [10]: Unstable
